# Experiments:
# Type in all cases: in vivo, rat
# [1] = test system: rats with streptozotocin-induced diabetes; assay: Blood pressure (tail-cuff plethysmography), heart rate, body weight, glucose and side-effects in streptozotocin-induced diabetic rats
# Experimental: (§1) All experiments were conducted in accordance with guidelines for the care and use of laboratory animals. Diabetes was induced in rats by a single tail vein injection of streptozotocin (60 mg/kg b.wt.), without insulin treatment, as recently described in Horcher et al., “Renal endothelin system in diabetes: inhibition and endothelin-A antagonism.”, J. Cardiovasc. Pharmacol. 1998; 31: 492-495. Diabetes was confirmed in streptozotocin treated rats by determining serum glucose concentrations. Only those rats were included having plasma glucose concentrations of >15 mmol/l (hyperglycemic rats, diabetic rats). Three groups of rats were investigated with n 7 to 11 per group: • 1) non-diabetic rats control group; • 2) diabetic rats control group, vehicle treated; • 3) treated diabetic rats group: with test compound of formula I ((3S,2′R)-3-{1-[2′-(ethoxycarbonyl)-4′-phenylbutyl]-cyclopentane-1-carbonylamino}-2,3,4,5-tetrahydro-2-oxo-1H-1-benzazepine-1-acetic-acid), 30 mg/kg/day for 18 weeks.
# The experiment performed according to the present invention over 18 weeks of treatment provided the following results which are detailed in Table I, and FIGS. 1 and 2. In the context of the present invention, the most important data to be considered are the mean blood pressure (BP; tail-cuff plethysmography), the protein and albumin excretion (mean values, standard deviations) in urine which was collected in metabolic cages over 24 h, and number (n) of animals in each group regarding non-diabetic controls, diabetic vehicle treated controls (=placebo) and test compound treated group.
# (§2) At baseline, serum glucose and blood pressure were similar in both diabetic groups. Compared to vehicle, the test compound of formula I had no effect on these parameters during the treatment period. After 18 weeks treatment, urinary protein and albumin excretion were measured. Protein excretion in the vehicle-treated group was about 18 mg/24 h; in the group which had received the compound of formula I it was about 4.8 mg/24 h (p=0.03 versus vehicle). Albumin excretion in the vehicle-group was about 0.5 mg/24 h, and in the which had received the compound of formula I it was about 0.1 mg/24 h (p=0.04). […] From the experiments it can be concluded that test compound of formula I decreases protein and albumin excretion in diabetic rats independent of blood pressure. From the results it may be concluded that the compounds of formula I exert a primary effect on end-organ disease.
# [2] = test system: rats with streptozotocin-induced diabetes; assay: Plasma concentrations of ET-1, bigET-1 and angiotensin-II in streptozotocin-induced diabetic rats; conditions: 30 mg/kg/day oral, 18 weeks
# Experimental: as §1, §2
# [3] = test system: rats with streptozotocin-induced diabetes; assay: Glomerular filtration rate by endogenous creatinine clearance in streptozotocin-induced diabetic rats; conditions: 30 mg/kg/day oral, after 18 weeks of treatment
# Experimental: as §1
# Glomerular filtration rate was calculated by the endogeneous creatinine clearance. It was observed that administering a compound of formula I as defined above improved the overall glomerular filtration rate.
# [4] = 30 mg/kg/day oral, after 18 weeks of treatment
# [5] = 30 mg/kg/day oral, during the treatment period
compound,measurement,setting,value
"CCOC(=O)[C@H](CCc1ccccc1)CC1(C(=O)N[C@H]2CCc3ccccc3N(CC(=O)O)C2=O)CCCC1 [test compound of formula I, (3S,2′R)-3-{1-[2′-(ethoxycarbonyl)-4′-phenylbutyl]-cyclopentane-1-carbonylamino}-2,3,4,5-tetrahydro-2-oxo-1H-1-benzazepine-1-acetic-acid]","Blood Pressure, mean value","[1]; 30 mg/kg/day oral with food, after 18 weeks of treatment, tail-cuff",129 mmHg
same,Side-effects,"[1]; 30 mg/kg/day oral, 18 weeks",No side-effects
same,"Body Weight, mean value",[1]; [4],252.7 g
same,"Glucose, final, mean value",[1]; [4],560.33 mg/dL
same,"Heart Rate, mean value",[1]; [4],280 beats/min
same,Effect on blood pressure compared to vehicle,[1]; [5],no effect
same,Effect on serum glucose compared to vehicle,[1]; [5],no effect
same,Plasma concentration of ET-1 compared to vehicle,[2],unchanged
same,Plasma concentration of angiotensin-II compared to vehicle,[2],unchanged
same,Plasma concentration of bigET-1 compared to vehicle,[2],unchanged
same,"Glomerular Filtration Rate, final, mean value",[3],2.014 mL/min

# From patent US20050137183A1, “Method and pharmaceutical compositions for treating or inhibiting renal dysfunctions, diseases or disorders, particularly in diabetic patients” (Solvay Pharmaceuticals GmbH, priority 2003, published 2005)
